Reference: patent US8404866B2, “Substituted heterocyclic mercaptosulfonamide metalloprotease inhibitors” (Florida State University Research Foundation, priority 2008, dated 2013)
Structures can show the parent of a compound that is named as a salt.

What was measured:
blood-brain barrier = details: ischemia reperfusion model in the rat; cited from earlier work
brain = details: following hemorrhage; cited from earlier work
kidneys = details: given prior to disease induction; cited from earlier work
EAN animal model = details: cited from earlier work
[1] = system: experimental autoimmune uveitis; details: cited from earlier work
[2] = target: T1, MMP-1 (HFC; human fibroblast collagenase) (Homo sapiens, UniProt P03956); assay: Enzyme kinetic assay, inhibition of MMP-1; format: biochemical; details: 25° C., pH 7.5, substrate 1 μM; read-out: IC50 (value without parentheses), HFC MMP-1
T1 sequence (P03956 100-469): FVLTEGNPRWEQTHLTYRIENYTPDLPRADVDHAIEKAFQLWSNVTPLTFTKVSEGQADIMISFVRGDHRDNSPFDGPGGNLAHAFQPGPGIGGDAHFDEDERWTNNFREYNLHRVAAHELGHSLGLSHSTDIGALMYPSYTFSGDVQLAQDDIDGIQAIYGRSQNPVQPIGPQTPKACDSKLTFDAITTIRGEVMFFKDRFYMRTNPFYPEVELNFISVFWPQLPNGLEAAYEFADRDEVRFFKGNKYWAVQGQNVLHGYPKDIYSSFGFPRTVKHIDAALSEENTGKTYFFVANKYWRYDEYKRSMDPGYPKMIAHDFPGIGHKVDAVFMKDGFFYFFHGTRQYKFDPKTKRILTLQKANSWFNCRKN
Text: (§1) The following protocol was used to obtain the data found in the following table. Materials: The fluorescent peptide substrates for matrix metalloproteinases (MMPs) used were purchased from Bachem Chem. Co. The metal salts and Brij-35 were purchased from Fisher Scientific Inc. All other chemicals were purchased from Sigma-Aldrich Chem. Co. The sources and biochemical characterizations of multiple MMPs, including MMP-1/human fibroblast collagenase (HFC), MMP-2/human fibroblast gelatinase (HFG), MMP-8/human neutrophil collagenase (HNC), and MMP-9/human neutrophil gelatinase (HNG), MMP-7/human matrilysin (MLN), MMP-3/human fibroblast stromelysin-1 (HFS), human recombinant catalytic domain of membrane-type 1 matrix metalloproteinase (cdMT1-MMP), catalytic domain of MMP-12/metalloelastase (cdMET), and MMP-26/human endometase (EDM) were described previously (Sang, Q. X., Birkedal-Hansen, H., and Van Wart, H. E. Proteolytic and non-proteolytic activation of human neutrophil progelatinase B. Biochim. Biophys. Acta. 1995; 1251, 99-108; Sang, Q. A., Bodden, M. K., and Windsor, L. J. Activation of human progelatinase A by collagenase and matrilysin: activation of procollagenase by matrilysin. J. Protein. Chem. 1996; 15, 243-253; Li, H., Bauzon, D. E., Xu, X., Tschesche, H., Cao, J., and Sang, Q.-X. A. Immunological characterization of cell-surface and soluble forms of membrane type 1 matrix metalloproteinase in human breast cancer cells and in fibroblasts. Molec. Carcinog. 1998; 22, 84-94; Park, H. I., Ni, J., Gerkema, F. E., Liu, D., Belozerov, V. E., and Sang, Q.-X. A. Identification and characterization of human endometase (Matrix metalloproteinase-26) from endometrial tumor. J. Biol. Chem., 2000; 275, 20540-20544). The active concentrations of MMPs were determined by titration with GM6001, a tight-binding MMP inhibitor, as described previously (Park, H. I., Turk, B. E., Gerkema, F. E., Cantley, L. C., and Sang, Q.-X. A. Peptide substrate specificities and protein cleavage sites of human endometase/matrilysin-2/matrix metalloproteinase-26. J. Biol. Chem. 2002; 277, 35168-35175).
(§2) The active inhibitor concentrations were estimated by titrating the mercapto group with 5,5′-dithiobis(2-nitrobenzoic acid) (DTNB; Ellman's reagent) as described previously (Ellman, G. L. A colorimetric method for determining low concentrations of mercaptans. Arch. Biochem. Biophys. 1958; 74, 443-450; Ellman, G. L. Tissue sulfhydryl groups. Arch. Biochem. Biophys. 1959; 82, 70-77; Riddles, P. W., Blakeley, R. L., and Zerner, B. Ellman's reagent: 5,5′-dithiobis(2-nitrobenzoic acid)—a reexamination. Anal. Biochem. 1979; 94, 75-81). Briefly, the reaction of DTNB with the mercapto group produces 2-nitro-5-thiobenzoic acid (TNB). The concentration of TNB is then measured by monitoring the absorbance at 412 nm. Cysteine was used to generate the standard curve with a molar extinction coefficient of 14,000±500 M^−1 cm^−1, which is close to the value in the literature (Riddles, P. W., Blakeley, R. L., and Zerner, B. Ellman's reagent: 5,5′-dithiobis(2-nitrobenzoic acid)—a reexamination. Anal. Biochem. 1979; 94, 75-81).
(§3) The substrate Mca-PLGLDpaAR-NH2 was used to measure inhibition constants (Knight, C. G., Willenbrock. F., and Murphy, G. A novel coumarin-labelled peptide for sensitive continuous assays of the matrix metalloproteinases. FEBS Lett. 1992; 296, 263-266). Enzymatic assays were performed at 25° C. in 50 mM HEPES buffer at pH 7.5 in the presence of 10 mM CaCl2, 0.2 M NaCl, and 0.01% or 0.05% Brij-35 with substrate concentrations of 1 μM. The release of product was monitored by measuring fluorescence (excitation and emission wavelengths of 328 nm and 393 nm, respectively) with a Perkin Elmer Luminescence Spectrophotometer LS 50B connected to a temperature controlled water bath. All stock solutions of inhibitors were in dimethyl sulfoxide. […]

[3] = target: MMP-9 (HNG; human neutrophil gelatinase) (Homo sapiens, UniProt P14780); assay: Enzyme kinetic assay, inhibition of MMP-9; format: biochemical; details: read-out: Ki (value in parentheses), HNG MMP-9
Text: as §1, §2, §3

[4] = target: T2, MMP-2 (HFG; human fibroblast gelatinase) (Homo sapiens, UniProt P08253); assay: Enzyme kinetic assay, inhibition of MMP-2; format: biochemical; details: read-out: Ki (value in parentheses), HFG MMP-2
T2 sequence (P08253 110-660): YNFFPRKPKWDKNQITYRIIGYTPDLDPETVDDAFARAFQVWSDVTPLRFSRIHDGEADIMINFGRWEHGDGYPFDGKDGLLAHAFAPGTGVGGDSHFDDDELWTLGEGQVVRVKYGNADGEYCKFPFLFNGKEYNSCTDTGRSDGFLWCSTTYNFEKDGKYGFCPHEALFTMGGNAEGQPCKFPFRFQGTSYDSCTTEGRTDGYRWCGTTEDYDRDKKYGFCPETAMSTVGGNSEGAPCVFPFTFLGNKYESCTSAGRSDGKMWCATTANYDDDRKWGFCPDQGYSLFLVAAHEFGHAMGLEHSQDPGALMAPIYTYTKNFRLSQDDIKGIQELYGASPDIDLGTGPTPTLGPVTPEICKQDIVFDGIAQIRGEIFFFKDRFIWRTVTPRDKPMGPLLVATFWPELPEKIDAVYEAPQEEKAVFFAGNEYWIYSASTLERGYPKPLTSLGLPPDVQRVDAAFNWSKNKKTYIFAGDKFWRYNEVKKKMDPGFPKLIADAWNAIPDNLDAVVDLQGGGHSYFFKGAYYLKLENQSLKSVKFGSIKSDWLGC
Text: as §1, §2, §3

[5] = target: MMP-3 (HFS; human fibroblast stromelysin-1) (Homo sapiens, UniProt P08254); assay: Enzyme kinetic assay, inhibition of MMP-3; format: biochemical; details: read-out: Ki (value in parentheses), HFS MMP-3
Text: as §1, §2, §3

stented arteries = details: compared to placebo; cited from earlier work
EAE animal model = details: administered daily from disease induction or from onset of clinical signs; cited from earlier work
lethal acute GVHD = details: mouse model of lethal acute GVHD; cited from earlier work
insulin resistance = details: mouse model of insulin resistance; cited from earlier work

Sequence of MMP-3 (HFS; human fibroblast stromelysin-1) (P08254 100-477): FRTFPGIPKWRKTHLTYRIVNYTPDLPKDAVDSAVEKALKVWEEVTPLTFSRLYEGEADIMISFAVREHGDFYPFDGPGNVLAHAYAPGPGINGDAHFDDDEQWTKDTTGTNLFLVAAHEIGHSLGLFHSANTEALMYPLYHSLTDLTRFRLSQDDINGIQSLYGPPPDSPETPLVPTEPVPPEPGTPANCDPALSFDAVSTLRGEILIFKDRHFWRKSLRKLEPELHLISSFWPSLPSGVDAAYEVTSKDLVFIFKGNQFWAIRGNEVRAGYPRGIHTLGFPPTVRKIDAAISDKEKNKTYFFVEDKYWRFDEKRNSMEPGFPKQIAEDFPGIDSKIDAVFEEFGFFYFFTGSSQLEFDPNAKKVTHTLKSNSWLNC
Sequence of MMP-9 (HNG; human neutrophil gelatinase) (P14780 94-707): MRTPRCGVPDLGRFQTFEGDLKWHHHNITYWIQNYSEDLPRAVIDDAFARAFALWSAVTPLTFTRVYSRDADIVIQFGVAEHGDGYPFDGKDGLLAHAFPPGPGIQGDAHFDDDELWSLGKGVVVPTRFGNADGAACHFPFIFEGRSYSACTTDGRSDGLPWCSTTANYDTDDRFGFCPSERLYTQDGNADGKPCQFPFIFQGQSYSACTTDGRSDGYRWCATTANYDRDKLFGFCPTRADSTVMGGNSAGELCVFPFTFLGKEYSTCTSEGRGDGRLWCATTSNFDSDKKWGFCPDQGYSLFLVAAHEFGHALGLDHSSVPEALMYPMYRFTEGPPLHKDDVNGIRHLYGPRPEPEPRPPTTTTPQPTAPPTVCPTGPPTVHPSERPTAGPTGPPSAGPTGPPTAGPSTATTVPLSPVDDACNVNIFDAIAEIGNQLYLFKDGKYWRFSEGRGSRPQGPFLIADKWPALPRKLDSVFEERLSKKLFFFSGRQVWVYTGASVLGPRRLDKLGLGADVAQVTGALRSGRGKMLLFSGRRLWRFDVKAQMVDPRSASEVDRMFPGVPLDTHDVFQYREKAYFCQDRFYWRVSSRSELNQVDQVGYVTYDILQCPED

IC50 [2] [nM] | Ki [3] [nM] | Ki [4] [nM] | Ki [5] [nM] | SMILES | also measured
 |  |  |  | C=CC[C@H](C(=O)NO)[C@@H](CC(C)C)C(=O)N[C@@H](Cc1ccccc1)C(=O)NC [BB-1101] | early phases of blood-brain barrier leakage (blood-brain barrier): reduces; secondary brain edema (brain): reduces; inflammatory response and damage (kidneys): significantly reduced; EAN symptoms, inflammation, demyelination, weight loss (EAN animal model; given from the initiation of EAN): prevented the development of symptoms and reduced inflammation, demyelination, and weight loss; EAN disease severity (EAN animal model; given from the onset of symptoms): significantly reduced disease severity; retinal damage [1]: shown to reduce retinal damage
50000 | 210 | 38 | 5900 | O=S(=O)(N[C@H]1CNC[C@@H]1S)c1ccc(Oc2ccccc2)cc1 [Example 10, (3S,4S)-3-(4-Phenoxybenzenesulfonamido)-4-mercaptopyrrolidine Hydrochloride] | 
6300 | 230 | 49 | 1600 | O=S(=O)(N[C@@H]1CNC[C@H]1S)c1ccc(Oc2ccccc2)cc1 [Example 11, (3R,4R)-3-(4-Phenoxybenzenesulfonamido)-4-mercaptopyrrolidine Hydrochloride] | 
 | 13 | 10 | 1700 | NC(=O)N1C[C@H](NS(=O)(=O)c2ccc(Oc3ccccc3)cc2)[C@@H](S)C1 [Example 12, (3S,4S)—N-Carbamoyl-3-(4-phenoxybenzene-sulfonamido)-4-mercaptopyrrolidine] | 
~125000 | 3100 | 1800 | 5400 | O=C(OCc1ccccc1)N1C[C@H](S)[C@H](NS(=O)(=O)c2ccc(Oc3ccccc3)cc2)C1 [Example 13, (3R,4S)—N-Cbz-3-(4-Phenoxybenzenesulfonamido)-4-mercaptopyrrolidine] | 
> 3000 | 2200 | 800 | 3400 | O=C(OCc1ccccc1)N1C[C@@H](S)[C@@H](NS(=O)(=O)c2ccc(Oc3ccccc3)cc2)C1 [Example 14, (3S,4R)—N-Cbz-3-(4-Phenoxybenzenesulfonamido)-4-mercaptopyrrolidine] | 
 |  |  |  | CNC(=O)[C@H](Cc1c[nH]c2ccccc12)NC(=O)[C@@H](CC(=O)NO)CC(C)C [GM6001] | intimal hyperplasia and collagen content (stented arteries): significantly inhibited; lumen area (stented arteries): increasing the lumen area; rates of proliferation (stented arteries): without affecting the rates of proliferation; clinical signs of EAE (EAE animal model): suppressed the development or reversed clinical signs of EAE in a dose-dependent way
 |  |  |  | CNC(=O)[C@@H](NC(=O)[C@H](CC(C)C)[C@H](C)C(=O)NO)c1ccccc1 [KB-R7785] | mortality (lethal acute GVHD): reduced mortality; plasma glucose and insulin levels (insulin resistance): significant decrease
